{"source": "patent US20170312305A1", "about": "“PHARMACEUTICAL EXTRACTS AND USES THEREOF” (UNIVERSITY OF SALFORD ENTERPRISES LIMITED, priority 2014, published 2017)", "key": {"MDA-468 cells": {"system": "MDA-468 cells", "test": "MTT cell viability assay, MDA-468 breast cancer cells", "assay_type": "cell-based", "conditions": "MDA-468, 96 hours, cisplatinum 1-25 μM", "description": "(§1) The breast cancer cell MDA 468 and MDANQ01, K562 and human lymphoblastic cell line (MOLT-4) were grown in RPMI 1640 medium supplemented with 1% L-glutamine, 1% of 100 Units/ml penicillin and 0.1 mg/ml streptomycin and 10% inactivated FCS. While the […] cell line HeLa and fibroblast cell line 3T3 were grown in DMEM medium supplemented with 20% inactivated FCS, 1% L-glutamine, 1% of 100 units/ml penicillin & 0.1 mg/ml streptomycin. All cell lines were maintained in a humidified incubator with an atmosphere of 95% air and 5% CO2 at 37° C.\n(§2) Cell viability was determined by the MTT (3-(4,5 dimethylthiazol2-yl)-2,5 diphenyltetrazolium bromide) test method. […] The metabolic activity of each well was determined by the (MTT) assay and compared to those of untreated cells. […] Cell viability was determined based on mitochondrial conversion of 3[4,5-dimethylthiazol-2-yl] […] The plates were gently agitated until the colour reaction was uniform and the absorbance was measured at 570 nm using a multi-well plate reader, Sigma Plot 2000 software was used for data analysis. The cell viability effects from exposure of cells to each concentration of crude whelk GAGs, commercial GAGs and cisplatinum were analysed as percentages of the control cell absorbance, which were obtained from control wells plated in RPMI, 1% L-glutamate and 10% FCS media. […]"}, "MDANQ01 cells": {"system": "MDANQ01 cells", "test": "MTT cell viability assay, MDANQ01 breast cancer cells", "assay_type": "cell-based", "conditions": "MDANQ01, 96 hours, cisplatinum 1-25 μM", "description": "as §1, §2"}}}
{"smiles": "N.N.[Cl][Pt][Cl]", "note": "[cisplatinum]", "values": [{"measurement": "IC50", "setting": "MDA-468 cells", "value": 880, "unit": "nM"}, {"measurement": "IC50", "setting": "MDANQ01 cells", "value": 630, "unit": "nM"}]}
